# Data: patent US20260284014A1, “3,5-DIAMINOTRIAZOLE DERIVATIVES AND USES THEREOF FOR TREATING OCULAR DISEASES” (CENTRE NATIONAL DE LA RECHERCHE SCIENTIFIQUE, priority 2023, published 2026)
# “Also recorded” adds a separate entry of the source.
# Key:
# ARPE-19 cells = assay: Cell viability (XTT assay); format: cell-based; details: Homo sapiens, 48 h, read-out: A. Safety IC50 on ARPE-19 cells
# Method: ARPE-19 cells were incubated in a 96-well plate with different effectors for 48 hours. Fifty microliters of sodium 3′-[1-phenylaminocarbonyl)-3,4-tetrazolium]-bis(4-methoxy-6-nitro) benzene sulfonic acid hydrate (XTT) reagent was added to each well. The test is based on the cleavage of the yellow tetrazolium salt XTT to form an orange formazan dye by metabolically active cells. This bio-reduction occurs in viable cells only and is associated with NAD(P)H production through glycolysis. Therefore, the amount of formazan dye measured at 490 nm, correlates directly with the number of metabolically active cells reflecting cell proliferation, viability, and cytotoxicity. Each assay was performed in quadruplicate.
# (§1) All compounds were evaluated in different experiments. Results are represented as the mean of three independent experiments. A. ARPE-19 cells were treated with dose response of compound for 48 h. Values are reported as IC50 measured with the XTT assay. B and C. ARPE-19 cells were treated with 5 μM (B) or 1 μM (C) compound then with 200 μM H2O2 for 2 h. ROS were analyzed by cytometry. […] As illustrated in FIG. 1A. D. ARPE-19 cells were treated with 2.5 μM compound for 48 h and the level of CXCL1 mRNA was evaluated by qPCR. […] As illustrated in FIG. 1B. E. TIME cells were pre-treated with 2.5 μM compound for 1 h then stimulated with 100 ng/ml CXCL8 for 15 min p-ERK levels were analyzed by immunoblotting. HSP90 served as loading control. […] As illustrated in FIG. 1C.
# [1] = tested on: pro-inflammatory, pro-angiogenic and/or pro-fibrotic mRNA markers; assay: ARPE-19 stimulation to mimic diabetic retinopathy in vitro, mRNA by qPCR; format: cell-based; details: ARPE-19, high glucose + cytokines, 5 or 10 μM
# Method: One microgram of total RNA was used for the reverse transcription, using the QuantiTect Reverse Transcription kit (QIAGEN, Hilden, Germany), with blend of oligo (dT) and random primers to prime first-strand synthesis. SYBR master mix plus (Eurogentec) was used for qPCR. The mRNA level was normalized to 36B4 mRNA
# (§2) ARPE-19 cells were cultured in hyperglycaemic conditions (D-glucose, 25 mmol/l) for 16 days at 37° C. under 5% CO2 in medium (DMEM/F12) supplemented with 10% FBS and 1% penicillin. On day 16, cells were pre-treated with MCK349. On day 17, cells were washed and treated with MCK349 and cytokines (10 ng/ml IL1ß, 25 ng/ml VEGF and 25 ng/ml TNFα) for 24 h. Cytokines are analyzed by multiplex ELISA (Meso Scale Discovery) on the supernatant. Cells were recovered to analyze the mRNA level of different markers by qPCR.
# [2] = tested on: pro-inflammatory cytokines; assay: LPS stimulated whole blood, multiplex ELISA; format: cell-based; details: human whole blood, 5 or 10 μM 1 h prior to 10 ng/ml LPS for 18 h
# Text: Human peripheral […] were obtained from healthy donors with informed consent following the Declaration of Helsinki according to recommendations of an independent scientific review board. The project has been validated by The Etablissement Français du Sang, the French national agency for blood collection (protocol 7952NQ). Blood samples were collected using ethylene diamine tetraacetic acid-containing tubes.
# Whole blood will be removed from a single donor (K3-EDTA) and diluted 1:5 with RPMI 1640. Within 30 minutes of sampling, blood will be incubated with 5 or 10 μM MCK349 for 1 h prior to 10 ng/ml LPS stimulation for 18 h. Blood is centrifuged to recover plasma and cytokines are analyzed by multiplex ELISA (Meso Scale Discovery).
# (§3) Cytokines from plasma (whole blood) or supernatant (ARPE-19 cells) were analyzed by multiplex ELISA. A multiplex ELISA was designed from U-PLEX Biomarker Group 1 (hu) Assays (K15069L-1). The protocol performed follows the instructions of the supplier.
# ERK activation (p-ERK) = assay: p-ERK immunoblotting after CXCL8 stimulation; format: cell-based; details: 2.5 μM compound 1 h then 100 ng/ml CXCL8 for 15 min; read-out: E. p-ERK inhibition - TIME
# Method: Cells were lysed in buffer containing 3% SDS, 10% glycerol and 0.825 mM Na2HPO4. 30 to 50 μg of proteins separated on 10% SDS-PAGE, transferred onto a PVDF membrane and then exposed to the appropriate antibodies. Proteins were visualized with the ECL system using horseradish peroxidase-conjugated anti-rabbit or anti-mouse antibodies.
# as §1
# [3] = tested on: ocular (retinal) neo-angiogenesis; assay: Hypoxia-induced retinal neo-angiogenesis in zebrafish; format: in vivo; details: hypoxia 5% oxygen 72 h, 0.25, 0.5, or 1 μM
# Method: All animal experiments were approved by the Experimental Animal Ethical Committee. Transgenic zebrafish embryos (fli: EGFP, blood vessels marked in GFP) were raised at 28° C. under standard experimental conditions. Zebrafish embryos at the age of 24 hpf were incubated in aquarium water containing 0.2 mmol/L 1-phenyl-2-thio-urea (PTU, Sigma). At 48-hpf, zebrafish embryos were placed for 72 h in normoxia (Nx) or hypoxia 5% oxygen […], in the presence of treatment. Retinal neo-angiogenesis was analyzed by fluorescent confocal microscope and quantified by ImageJ.
# [4] = tested on: pro-inflammatory, pro-angiogenic and/or pro-fibrotic cytokines; assay: ARPE-19 stimulation to mimic diabetic retinopathy in vitro, cytokines by multiplex ELISA; format: cell-based; details: ARPE-19, high glucose + cytokines, 5, 10, or 25 μM
# Method: as §2, §3
# ROS = ROS labeling by cytometry after H2O2; format: cell-based; details: for inhibition at 1 µM / inhibition at 5 µM: Homo sapiens, ARPE-19; for inhibition at 1 µM: 1 μM compound then 200 μM H2O2 for 2 h, read-out: C. ROS inhibition 1 μM - ARPE-19 cells; for inhibition at 5 µM: 5 μM compound then 200 μM H2O2 for 2 h, read-out: B. ROS inhibition 5 μM - ARPE-19 cells
# Method: ARPE-19 cells were treated with MCK349 30 minutes then with 200 μM H2O2 for 2 h. 10 μM DCF-DA (2′,7′-Dichlorofluorescein diacetate) were added on cell media for 30 min. Cells were rinsed then detached (trypsin) and resuspended in PBS 0.5% BSA and 2 mM EDTA. The cells are analyzed by cytometry (ROS labeled with DCFDA-FITC).
# as §1
# TIME cells [5] = assay: Vessels formation assay on Matrigel; format: cell-based; details: 5 or 10 μM
# Method: 300 μL of Matrigel Matrix were coated in 24-well plates and put 1 h a 37° C. Then Time cells were plated (300 000 cells/well). Plates were then incubated at 37° C., 5% CO2 for 24 hours. Representative images were taken with the Evos XL Core Cell Imaging System at low magnification (4×).
# [6] = tested on: choroidal neovascularization (CNV); assay: Laser induced choroidal neovascularization and vascular leakage in mice; format: in vivo; details: intravitreal 52 μg/ml (2 μl) four times, Day 9 and 15
# Method: Laser photocoagulation (shoot retina with laser beam (50 μm, 0.1 s, and 250~300 mW or any other parameters reasonable) for 4 spots avoiding blood vessels) were performed binocularly on each animal at Day 1 on male C57 mice (8 mice per group).
# Vehicle and MCK349 (52 μg/ml) were delivered by binocular intravitreal injection (2 μl) four times in total. Once on Day 1 (right after modeling), Day 4, Day 7 and Day 11. Optical Coherence Tomography (OCT) was performed once on modeling day right after laser photocoagulation and once on Day 9 and Day 15. CNV volume of each lesion will be measured. Fundus Fluorescein Angiography (FFA) was conducted once on Day 9 and Day 15. The angiograms will be graded as follows: Grade 0, no bright hyperfluorescence; Grade 1, hyperfluorescence without leakage; Grade 2a, hyperfluorescence and late leakage; and Grade 2b, bright hyperfluorescence and late leakage beyond treated areas.
# TIME cells [7] = assay: Endothelial cells proliferation; format: cell-based; details: 72 h
# Method: TIME cells were plated in 12-well plates (25 000 cells/well) in 0.5% SVF media and then stimulated with 100 ng/mL CXCL8 or CXCL7 for 72 h. Cell proliferation is assessed by cell count. The results are expressed as % of day 0 relative to the condition tested.
Structure (SMILES),IC50 (ARPE-19 cells),expression (mRNA) of pro-angiogenic and/or pro-inflammatory cytokines in diabetic retinopathy model in vitro [1],pro-inflammatory cytokines induced by LPS stimulation in whole blood [2],inhibition at 2.5 µM (ERK activation (p-ERK)),ocular (retinal) neo-angiogenesis in zebrafish [3],ocular (retinal) neo-angiogenesis in zebrafish ([3]; listed as MC342),secretion of pro-angiogenic and/or pro-inflammatory cytokines in diabetic retinopathy model in vitro [4],inhibition at 1 µM (ROS),inhibition at 5 µM (ROS),vessel formation on matrigel (TIME cells [5]),choroidal neovascularization (CNV) [6],vascular leakage (FFA grade 2b lesions) [6],"endothelial cell proliferation induced by CXCL7 (TIME cells [7]; 100 ng/mL CXCL7, 0.1, 0.2 or 0.5 μM)","endothelial cell proliferation induced by CXCL8 (TIME cells [7]; 100 ng/mL CXCL8, 0.1, 0.2 or 0.5 μM)","oxidative stress (ROS) inhibition (ROS; ARPE-19, 1 μM MCK349 then 200 μM H2O2 for 2 h)"
"Cc1ccc(Nc2nc(N)n(Cc3cccc(Br)c3)n2)cc1 [MCK342, 1-(3-bromobenzyl)-N^3-(4-methylphenyl)-1H-1,2,4-triazole-3,5-diamine]",> 25 µM,inhibit the expression,inhibit pro-inflammatory cytokines,< 50%,inhibit ocular neoangiogenesis,inhibit ocular (retinal) neo-angiogenesis,"inhibit the expression (mRNA, FIG. 3) and secretion",≥ 50%,≥ 50%,–,–,–,–,–,–
"Nc1nc(Nc2ccc(Cl)c(Cl)c2)nn1Cc1cccc(Br)c1 [MCK349, 1-(3-bromobenzyl)-N^3-(3,4-dichlorophenyl)-1H-1,2,4-triazole-3,5-diamine]",> 25 µM,"inhibits pro-inflammatory, pro-angiogenic and/or pro-fibrotic mRNA markers; also recorded: inhibit the expression",inhibit pro-inflammatory cytokines,≥ 50%,inhibit ocular (retinal) neo-angiogenesis; also recorded: inhibit ocular neoangiogenesis,–,"inhibits pro-inflammatory, pro-angiogenic and/or pro-fibrotic cytokines; also recorded: inhibit the expression (mRNA, FIG. 3) and secretion",≥ 50%,≥ 50%,inhibiting vessel formation on matrigel,inhibits vascular leakage (FIGS. 9A and B) and neovascularization; also recorded: inhibits choroidal neovascularization (CNV),inhibits choroidal neovascularization (CNV) and vascular leakage,inhibiting endothelial cell proliferation,inhibiting endothelial cell proliferation induced by CXCL8,inhibits oxidative stress
